Measurements taken from publication PMC7175962 (Journal of medicinal chemistry, 2019).
Converted amounts (≈) assume the structure as drawn.

Key:
[1] = test system: K. pneumoniae C2 (KPC-2), clinical strain; assay: Checkerboard assay, imipenem plus inhibitor; format: cell-based
E. coli 5980 (NDM-1) = assay: MIC of imipenem in combination with inhibitor; format: cell-based; details: for reduction of imipenem MIC: compound at 128 μg/mL, NDM-1 producing E. coli
[2] = test system: K. pneumoniae 5979 (NDM-1); assay: MIC of imipenem in combination with inhibitor; format: cell-based; details: for reduction of imipenem MIC: compound at 128 μg/mL, NDM-1 producing K. pneumoniae
E. cloacae 5981 (NDM-1) = assay: MIC of imipenem in combination with inhibitor; format: cell-based; details: for reduction of imipenem MIC: compound at 128 μg/mL, NDM-1 producing E. cloacae
[3] = test system: Gram-negative pathogens (all strains); assay: Antibacterial activity of inhibitors alone; format: cell-based; details: for antibacterial effects by itself, without imipenem: 128 μg/mL; for MIC: read-out: MIC of compound tested alone
KPC-2 = KPC-2 (Klebsiella pneumoniae, UniProt Q9F663); format: biochemical
NDM-1 = NDM-1 (Klebsiella pneumoniae, UniProt C7C422); assay: NDM-1 inhibition, nitrocefin hydrolysis assay; format: biochemical
VIM-2 = VIM-2 (Pseudomonas aeruginosa, UniProt Q9K2N0); assay: VIM-2 inhibition, nitrocefin hydrolysis assay; format: biochemical; details: VIM-2 versus NDM-1
[4] = test system: P. aeruginosa 4129 (NDM-1), lacking efflux pumps; assay: Checkerboard assay, imipenem plus inhibitor; format: cell-based
[5] = test system: P. aeruginosa(eflx+) 4177 (NDM-1); assay: Checkerboard assay, imipenem plus inhibitor; format: cell-based
[6] = test system: P. aeruginosa 4882 (VIM-2), lacking efflux pumps; assay: Checkerboard assay, imipenem plus inhibitor; format: cell-based
[7] = Kinetic solubility in pH 7.4 PBS; format: physicochemical
[8] = test system: P. aeruginosa 4698 (VIM-2); assay: MIC of imipenem in combination with inhibitor; format: cell-based
[9] = test system: K. pneumoniae 4683 (KPC-2); assay: MIC of imipenem in combination with inhibitor; format: cell-based; details: Klebsiella pneumoniae, read-out: MIC of imipenem
[10] = test system: P. aeruginosa 4135 (KPC-2), lacking efflux pumps; assay: Checkerboard assay, imipenem plus inhibitor; format: cell-based; details: Pseudomonas aeruginosa, read-out: MIC of imipenem
[11] = test system: P. aeruginosa(eflx+) 4402 (VIM-2); assay: Checkerboard assay, imipenem plus inhibitor; format: cell-based; details: Pseudomonas aeruginosa, read-out: MIC of imipenem
[12] = test system: P. aeruginosa 4173 (vector); assay: MIC of imipenem, vector control strain; format: cell-based; details: Pseudomonas aeruginosa, read-out: MIC of imipenem
[13] = test system: P. aeruginosa(eflx+) 4175 (vector); assay: MIC of imipenem, vector control strain; format: cell-based; details: Pseudomonas aeruginosa, read-out: MIC of imipenem
[14] = Klebsiella pneumoniae, read-out: MIC of imipenem
[15] = Pseudomonas aeruginosa, read-out: MIC of imipenem

Sequence of KPC-2 (Q9F663 25-293, looked up): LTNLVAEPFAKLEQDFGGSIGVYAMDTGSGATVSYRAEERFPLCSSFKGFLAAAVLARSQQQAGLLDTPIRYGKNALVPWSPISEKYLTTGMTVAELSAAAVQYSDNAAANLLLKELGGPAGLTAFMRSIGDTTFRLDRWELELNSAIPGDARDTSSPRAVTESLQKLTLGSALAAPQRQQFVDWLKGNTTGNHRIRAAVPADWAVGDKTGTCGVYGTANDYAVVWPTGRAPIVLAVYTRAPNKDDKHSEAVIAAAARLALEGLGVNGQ
Sequence of NDM-1 (C7C422 29-270, looked up): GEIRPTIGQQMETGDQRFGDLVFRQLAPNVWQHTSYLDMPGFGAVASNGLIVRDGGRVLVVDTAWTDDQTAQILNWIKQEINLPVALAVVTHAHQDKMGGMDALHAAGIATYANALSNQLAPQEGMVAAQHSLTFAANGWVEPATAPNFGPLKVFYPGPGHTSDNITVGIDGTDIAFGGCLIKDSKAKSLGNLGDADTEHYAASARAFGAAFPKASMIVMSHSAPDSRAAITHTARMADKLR

In the case of `NC(=O)[C@@H]1CC[C@@H]2CN1C(=O)N2OS(=O)(=O)O` [avibactam], the “MIC of imipenem in the presence of avibactam” value ([1]; avibactam at 16 μg/mL) is reported as 1 µg/mL and the “reduction of imipenem MIC” value ([1]; inhibitor at 16 μg/mL) is reported as 512 fold.

In the case of `Cc1cc(Br)c2c(CP(=O)(O)O)cc(=O)oc2c1` [Compound 9, [(5-bromo-7-methyl-2-oxo-2H-chromen-4-yl)methyl]phosphonic acid], the “reduction of imipenem MIC” value (E. coli 5980 (NDM-1)) is reported as 4 fold, the “reduction of imipenem MIC” value [2] is reported as “more than 2 fold” and the “reduction of imipenem MIC” value (E. cloacae 5981 (NDM-1)) is reported as “did not have any activity”. The “antibacterial effects by itself, without imipenem” value [3] was “neither 9 nor 16 showed any antibacterial effects” and the MIC [3] was greater than 128 µg/mL.

For `O=P(O)(O)Cc1ccnc2ccccc12` [Compound 15, [(quinolin-4-yl)methyl]phosphonic acid], the “potencies and ligand efficiencies inferior to DHQ comparator 11 (KPC-2)” value (KPC-2; relative to compound 11) was 2–5 times.

For `O=c1cc(CP(=O)(O)O)c2c(F)cc(F)cc2o1` [Compound 8, [(5,7-difluoro-2-oxo-2H-chromen-4-yl)methyl]phosphonic acid], the “Ki (NDM-1)” value (NDM-1; nitrocefin substrate, 37 °C, pH 7.2, 50 μM zinc sulfate) was “did not show inhibition” and the “NDM-1 inhibition after pre-incubation of the compound with NDM-1” value (NDM-1; pre-incubation, data not shown) was “weak inhibitory activity”.

For `O=c1cc(CP(=O)(O)O)c2c(Br)cc(Br)cc2[nH]1` [Compound 16, [(5,7-dibromo-2-oxo-1,2-dihydroquinolin-4-yl)methyl]phosphonic acid], the “increase in activity on replacing C7-Me in 9 by -Br (KPC-2)” value (KPC-2; relative to compound 9) was ~ 12 fold, the “activity improved over the parent DHQ analog 11 (KPC-2)” value (KPC-2; relative to compound 11) was ~ 7,000 fold and the “higher affinity for VIM-2 than NDM-1” value (VIM-2) was ~ 100 x. The “MIC of imipenem in the presence of 16” value ([1]; 16 at 16 μg/mL) was 16 µg/mL, the “reduction of imipenem MIC” value ([4]; 16 at 128 μg/mL) was 16 fold and the “decrease in potency by overexpressing efflux pumps, against NDM-1” value ([5]; eflx+ versus efflux-deleted strain) was “up to 4 fold”. For the same compound, the “reduction of imipenem MIC” value ([6]; 16 at 128 μg/mL, maximum observable) was 16 fold, the solubility kinetic [7] was 95.9 µg/mL (≈ 242 µM) and the “antibacterial effects by itself, without imipenem” value [3] was “neither 9 nor 16 showed any antibacterial effects”.

With `Cc1cc(C)c2c(CP(=O)(O)O)cc(=O)[nH]c2c1` [Compound 13, [(5,7-dimethyl-2-oxo-1,2-dihydroquinolin-4-yl)methyl]phosphonic acid] the “reduction of imipenem MIC” value (E. coli 5980 (NDM-1)) was 4 fold, the “reduction of imipenem MIC” value [2] was “unable to rescue imipenem activity” and the “reduction of imipenem MIC” value (E. cloacae 5981 (NDM-1)) was “unable to rescue imipenem activity”. For the same compound, the “MIC of imipenem in the presence of compound” value ([8]; compound at 128 μg/mL) was greater than 64 µg/mL, the “reduction of imipenem MIC” value ([8]; compound at 128 μg/mL, VIM-2 producing P. aeruginosa) was “unable to rescue imipenem activity” and the solubility kinetic [7] was 51.6 µg/mL (≈ 193 µM). The MIC [3] was greater than 128 µg/mL.

`C[C@@H](O)[C@H]1C(=O)N2C(C(=O)O)=C(SCCN=CN)C[C@H]12` [Imipenem, imipenem, reference compound] gave an MIC (E. coli 5980 (NDM-1); Escherichia coli, read-out: MIC of imipenem) of 8 µg/mL, an MIC [9] of 64 µg/mL and an MIC [2, 14] greater than 64 µg/mL. For the same compound, the MIC (E. cloacae 5981 (NDM-1); Enterobacter cloacae, read-out: MIC of imipenem) was 2 µg/mL, the MIC [8, 15] was greater than 64 µg/mL and the MIC [1, 14] was 512 µg/mL. For the same compound, the MIC [10] was 64 µg/mL, the MIC [4, 15] was 128 µg/mL and the MIC [5, 15] was 128 µg/mL. It also gave an MIC [6, 15] of 32 µg/mL, an MIC [11] of 32 µg/mL and an MIC [12] of 2 µg/mL. It also gave an MIC [13] of 2 µg/mL.

In the case of `O=c1cc(CP(=O)(O)O)c2ccccc2[nH]1` [Compound 11, [(2-oxo-1,2-dihydroquinolin-4-yl)methyl]phosphonic acid], the “reduction of imipenem MIC” value (E. coli 5980 (NDM-1)) is reported as “little if any effect”, the “reduction of imipenem MIC” value [2] is reported as “little if any effect” and the “reduction of imipenem MIC” value (E. cloacae 5981 (NDM-1)) is reported as “little if any effect”. For the same compound, the “MIC of imipenem in the presence of compound” value ([8]; compound at 128 μg/mL) was greater than 64 µg/mL and the MIC [3] was greater than 128 µg/mL.
